Data taken from patent publication US20130072506A1, “6,8-DISUBSTITUTED PURINE COMPOSITIONS” (priority 2011, published 2013).

How the values were obtained:
[1] = tested on: mitochondria of ASF-2 cells; assay: JC-1 staining of mitochondria; type: cell-based, human; conditions: 3 days pre-treatment of dermal fibroblasts
Method: All cell culture experiments were performed on early and mid passage cultures (about 20 to 40% lifespan completed) of normal human skin fibroblast line, designated ASF-2. In order to check the effects of test compounds on senescent cells, late passage cells with more than 90% lifespan completed were used. ASF-2 cell line was established from a mammary skin biopsy obtained from a young, non-smoking and healthy […] at the time of breast reduction operation. Normal culture conditions of medium (DMEM) containing antibiotics, 10% foetal calf serum, and incubation at 37° C. with 95% humidity were used. The effects of the test compounds were determined using the following procedures.
Briefly, stock solution of JC-1 (Sigma, M2128) was made at 1 mg/ml in dimethyl sulfoxide. Fresh staining solution […] was prepared by diluting the stock solution in warm (37° C.) culture medium supplemented with 10% calf serum (final conc. 1 μg/ml). Around 3000 cells/ml were seeded in 4 chambered flasks. After three days of incubation, medium is aspirated and one ml of JC-1 staining medium is added, after incubation for 10 mins a cover slip is quickly added and viewed under fluorescent microscope at excitation wavelengths of 488 and 647 nm. […] On depolarization, the orange red punctate staining is replaced by diffuse green monomer fluorescence.

SKH-1 hairless mice [2] = assay: Hairless mouse assay: epidermal bromodeoxyuridine (BrdU) staining; type: in vivo; conditions: epidermal BrdU staining after 3 weeks of topical treatment, 0.1% (tretinoin 0.05%)
Description: This study determined the effect of topical compound formulations on epidermal cell proliferation using bromodeoxyuridine as an immunohistochemical marker of cell proliferation. Histological examination of the treated and control skin were used to determine cutaneous effects of the topical compounds. Topical tretinoin 0.05% (Renova™) was used as a therapeutic control.
(§1) Experimental Design. 48 female SKH-1 hairless mice (5 weeks old, 20-25 grams, Charles River Laboratories, Wilmington, Mass.) are individually housed in filter-top cages, and acclimated for 5-7 days after delivery. The mice are divided into 8 treatment groups (n=6), including two different control groups (untreated control, vehicle control) and a therapeutic control (tretinoin 0.05% Renova™ cream). Cage cards are marked to indicate treatment groups 1-8. Water and mouse chow are provided ad libitum.
(§2) Topical Treatments. Beginning on Treatment Day 1, test products are applied topically each morning (Monday through Friday) after erythema evaluations for 3 weeks. Using a positive displacement pipette, 20 mg of each agent is applied to a 2 cm×2 cm area of the center midline of the back. The material was spread across the treatment area with the pipette tip.
Bromodeoxyuridine Injection. All animal groups are injected with bromodeoxyuridine (100 mg/kg) I.P. 4 hours after the final application. Animals are sacrificed by CO2 inhalation 3 hours later followed by cervical dislocation. The test sites are excised, and 6 mm punch biopsies are obtained from each treatment site, and from untreated controls. Biopsies are placed into labeled vials containing 4% neutral buffered formalin for paraffin embedding and anti-BrdU staining.
Bromodeoxyuridine Immunohistochemical Staining. Paraffin sections are cut to a […] thickness and stained using the BrdU Immuno-histochemistry kit (X1545K from Exalpha Biologicals, Inc.) and a standard staining protocol. The slides are weakly counterstained in Mayer's hematoxylin and scored under a light microscope for the number of BrdU-positive cells per mm of epidermis for each section. The data are expressed as mean BrdU-positive cells/mm for each treatment group. Differences in BrdU labeling in the treatment groups are statistically analyzed using the Students t-test. Representative photographs are taken of the histological sections of the BrdU-positive staining cells.

SKH-1 hairless mice [3] = assay: Hairless mouse assay: skin moisture content; type: in vivo; conditions: compared with the vehicle
Description: Evaluation of cutaneous effects of new topical compounds in the hirless mouse assay. The purpose of this study was to evaluate new topical compounds for their safety and efficacy as topical skin anti-aging treatments. The hairless mouse model is a well established model for studying the treatments of photoaging. […] The present study was used to investigate a new class of anti-aging compounds in comparison to classical ones. […] Topical compounds and vehicle controls were be applied daily (Monday-Friday) for 3 weeks to the dorsal skin of hairless mice. At baseline (prior to the 1st treatment), and weekly, the dorsal skin was measured for: transepidermal water loss (TEWL); skin moisture content; and skin elasticity.
as §1
Skin Moisture Content & Elasticity. The measurements of skin moisture content and skin elasticity are important noninvasive methods used to characterize the effects of moisturizers and anti-wrinkle effects on skin. A DermaLab™ combination instrument were used to measure the skin moisture content and elasticity of the target skin sites at baseline and at weekly intervals. This instrument is equipped with dual probes which are placed on the skin surface and a quantitative measurement taken of the respective parameters and the measurements recorded on an integrated computer. Mean measurements was determined for each treatment group over time, and comparative statistics used to evaluate product effectiveness.
as §2

[4] = tested on: Amaranthus caudatus cotyledon/hypocotyl explants; assay: Amaranthus bioassay (betacyanin content); type: in vivo, Amaranthus caudatus var. atropurpurea; conditions: for Activity (%): at concentration with highest activity, activity of kinetin set at 100%; for Concentration with highest activity: betacyanin content, 48 hours in darkness
Method: Testing of Novel Compounds in Amaranthus bioassay. Standard Amaranthus bioassay was performed with several modifications. The seeds of Amaranthus caudatus var. atropurpurea were surface-sterilized in 10% N-chlorobenzene sulfonamide (w/v) for 10 min and washed 5 times in deionized water. They were placed in 14 cm Petri dishes containing paper tissues saturated with deionized water. After 72 hours of cultivation at 25° C. in darkness, the roots of the seedlings were cut off. The explants, consisting of two cotyledons and hypocotyls, were placed in 5 cm Petri dishes on two layers of filter paper soaked in 1 ml of incubation medium containing 10 μmol Na2HPO4—KH2PO4, pH 6.8, 5 μmol tyrosine and the cytokinin to be tested. There were 20 explants per dish. The procedure was carried out under a green safe light in a darkroom. After a 48 hours of incubation at 25° C. in darkness, betacyanin was extracted by freezing the explants in 4 ml 3.33 μM acetic acid. The concentration of betacyanin was determined by comparing the absorbance at 537 nm and 620 nm as follows: DA=A537nm−A620nm. From the obtained data, the concentration with highest activity was selected for each compound tested. Relative activity of the compound at this concentration was calculated (see Table 3 below). […] The values shown in Table 3 are means of five replicates and the entire test was repeated twice.
The cytokinins to be tested were dissolved in dimethylsulfoxide (DMSO) and the solution brought up to 10^−3 M with distilled water.

excised wheat leaf tips = assay: Senescence inhibition on winter wheat leaf segments (chlorophyll retention); type: in vivo, Triticum aestivum cv. Hereward; conditions: for Activity (%): at concentration with highest activity, activity of 10^−4 M kinetin set at 100%; for Concentration with highest activity: retention of chlorophyll in excised wheat leaf tips, 96 hours in the dark
Method: Senescence Inhibition by Novel Compounds Tested on Winter Wheat Leaf Segments. Seeds of winter wheat, Triticum aestivum cv. Hereward, were washed under running water for 24 hours and then sown on vermiculite soaked with Knop's solution. They were placed in the grown chamber at 25° C. with a 16/8 hours light period at […]·m^−2·s^−1. After 7 days, the first leaf was fully developed and the second leaf had started to grow. A tip section of the first leaf, approximately 35 mm long, was removed from 5 seedlings and trimmed slightly to a combined weight of 100 mg. The basal ends of the five leaf tips were placed in the wells of a microtiter polystyrene plate containing […] of a cytokinin solution each. The entire plate was inserted into a plastic box lined with paper tissues soaked in distilled water to prevent leaf sections from drying out. After 96 hours incubation in the dark at 25° C., the leaves were removed and chlorophyll extracted by heating at 80° C. for 10 min in 5 ml of 80% ethanol (v/v). The sample volume was then restored to 5 ml by the addition of 80% ethanol (v/v). The absorbance of the extract was recorded at 665 nm. In addition, chlorophyll extracts from fresh leaves and leaf tips incubated in deionized water were measured. The set up of the assay is shown on FIG. 1. From the obtained data, the concentration with highest activity was selected for each compound tested. Relative activity of the compound at this concentration was calculated (see Table 2 below). […] The values shown are means of five replicates and the whole experiment was repeated twice.
The compounds to be tested were dissolved in dimethylsulfoxide (DMSO) and the solution brought up to 10^−3 M with distilled water.

[5] = tested on: cytokinin-dependent tobacco callus; assay: Growth of cytokinin-dependent tobacco callus (plant cell division); type: cell-based, Nicotiana tabacum L. cv. Wisconsin 38; conditions: for Activity (%): at concentration with highest activity, activity of kinetin set at 100%
Method: The effect on plant cell division. Cytokinin-dependent tobacco callus Nicotiana tabacum L. cv. Wisconsin 38 was maintained at 25° C. in darkness on modified MS medium, containing 4 μmol/l nicotinic acid, 2.4 μmol/l pyridoxine hydrochloride, 1.2 μmol/l thiamine, 26.6 μmol/l glycine, 1.37 μmol/l glutamine, 1.8 μmol/1 myo-inositol, 30 g/l of sucrose, 8 g/l of agar, 5.37 μmol/l NAA and 0.5 μmol/l BAP. Subcultivation was carried out every three weeks. Fourteen days before the bioassay, the callus tissue was transferred to the media without BAP. Biological activity was determined from the increase in fresh callus weight after four weeks of cultivation. Five replicates were prepared for each cytokinin concentration and the entire test was repeated twice. From the obtained data, the concentration with highest activity was selected for each compound tested. Relative activity at this concentration was calculated (see Table 4 below).
The cytokinins to be tested were dissolved in dimethylsulfoxide (DMSO) and the solution brought up to 10^−3M with distilled water.

SMILES | JC-1 staining [1] | Mean Nuclei Stained (SKH-1 hairless mice [2]) | average moisture content (SKH-1 hairless mice [3]) | melting point [°C] | Activity (%) [4] [%] | Concentration with highest activity [4] | Activity (%) (excised wheat leaf tips) | Concentration with highest activity (excised wheat leaf tips) | Activity (%) [5] [%] | range of the optimal concentration ([5]; tobacco callus growth)
CN[C@@H]1C[C@H]2O[C@@](C)([C@@H]1OC)n1c3ccccc3c3c4c(c5c6ccccc6n2c5c31)C(=O)NC4 [staurosporine, reference compound] | drastically reduced the uptake of JC-1 and J-aggregate formation |  |  |  |  |  |  |  |  | 
c1coc(CNc2ncnc3c2ncn3C2CCCCO2)c1 (centres unmarked) [6-Furfurylamino-9-(2-tetrahydropyranyl)purine] |  | 5.3 ± 4.2 | higher than that of the vehicle |  |  |  |  |  |  | 
CCOC(=O)c1nc2ncnc(NCc3ccccc3)c2[nH]1 [Compound 195, 6-Benzylamino-8-ethoxycarbonylpurine] |  |  |  | 181 to 185 | 122.55 | 10^−4 mol/l | 122.06 (±2) % | 10^−4 mol/l |  | 
c1coc(CNc2ncnc3[nH]cnc23)c1 [kinetin, reference compound] |  |  |  |  | 100 | 10^−5 mol/l | 100% | 10^−4 mol/l | 100 | sharp concentration optimum
C/C(=C\CNc1ncnc2[nH]cnc12)CO [Zeatin] |  | 3.5 ± 3.4 mm | higher than that of the vehicle |  |  |  |  |  |  | 
Sc1nc2ncnc(NCc3ccccc3)c2[nH]1 [Compound 138, 6-Benzylamino-8-sulphanylpurine] |  |  |  | 267 to 269 | 111.25 | 10^−4 mol/l | 140.45 (±3) % | 10^−4 mol/l | 156.66 | 
CN(C)c1nc2ncnc(NCc3ccccc3)c2[nH]1 [Compound 62, 6-Benzylamino-8-dimethylaminopurine] |  |  |  | 217 to 219 |  |  | 106.13 (±1) % | 10^−4 mol/l | 165.64 | 
